We go through three molecules from patent US20260125371A1, “METHOD FOR INHIBITING CLOSTRIDIOIDES DIFFICILE SPORE GERMINATION” (UNIVERSITY OF NOTRE DAME DU LAC, priority 2022, published 2026).

Series [1] can be described thus: Solubility observed during characterisation. Particulars: DMSO, room temperature.
The test system of series [2] is C. difficile ATCC 43255. The series is described as follows: Determination of minimal-inhibitory concentrations (microdilution), C. difficile ATCC 43255. The conditions noted are these: for MIC: Clostridioides difficile. It counts as cell-based, Clostridioides difficile.
For series [3], the system named is Bifidobacterium longum HM-846. The conditions noted are these: cited from earlier work.
A further series relates to A. baumanii ATCC17961. Briefly: MIC against A. baumanii. It counts as cell-based. Particulars: Acinetobacter baumannii, ATCC17961.
Series [4] concerns Lactobacillus reuteri HM-102. Particulars: cited from earlier work.
Series [5] concerns C. difficile ATCC 43255 vegetative cells. Briefly: Mode of action by scanning electron microscopy (SEM). The conditions noted are these: 8× MIC for 24 h.
Series [6] relates to Clostridioides difficile infection. The conditions noted are these: CDI patients; cited from earlier work.
The subject of the next series is K. pneumoniae ATCC700603. Briefly: MIC against K. pneumoniae. Format: cell-based. Particulars: Klebsiella pneumoniae, ATCC700603.
Series [7] has as its system Fusobacterium nucleatum HM-992. Particulars: cited from earlier work.
For another series, the system named is P. aeruginosa ATCC27853. Briefly: MIC against P. aeruginosa. Format: cell-based. The conditions noted are these: Pseudomonas aeruginosa, ATCC27853.
Another series deals with Veillonella sp. HM-49. Particulars: cited from earlier work.
For series [8], the system named is C. difficile ATCC 43255. The series is described as follows: Minimal-bactericidal concentration (MBC). Format: cell-based, Clostridioides difficile.
In series [9] the test system is Bacteroides fragilis HM-709. The conditions noted are these: cited from earlier work.
The test system of series [10] is C. difficile ATCC 43255. It counts as cell-based, Clostridioides difficile.
For a further series, the system named is Gram-negative bacteria. It counts as cell-based.
The next series has as its system E. coli ATCC25922. The series is described as follows: MIC against E. coli. It counts as cell-based. The conditions noted are these: Escherichia coli, ATCC25922.
In another series the test system is E. aerogenes ATCC35029. The series is described as follows: MIC against E. aerogenes. It counts as cell-based. Particulars: Klebsiella aerogenes, ATCC35029.
In series [11] the test system is extended panel of Gram-positive bacteria. The series is described as follows: MIC range over extended panel of Gram-positive bacteria. Format: cell-based.
For series [12], the system named is Lactobacillus gasseri HM-644. Particulars: cited from earlier work.
The next series relates to HepG2 cells. Briefly: XTT cytotoxicity assay. The conditions noted are these: Homo sapiens, HepG2, read-out: XTT IC50. Format: cell-based. A general note: Formazan colour is commonly taken as a measure of viable cells.
A further series deals with THP-1 cells. Briefly: Lactate dehydrogenase (LDH) cytotoxicity assay. The conditions noted are these: Homo sapiens. It counts as cell-based, human.
[13] abbreviates: ATCC43255, 24 h, C. difficile ATCC 43255, 24 h, read-out: MIC (μg/mL) 24 h.

≈ marks a conversion by molar mass, not a printed value. Entries after “also recorded” stand apart in the source; their conditions may differ. Where two headings read alike, the source gives them in different places.

In the case of `Cl.O=[N+]([O-])c1c[nH]c(-c2nc(-c3ccc(CN4CCCC4)cc3)no2)n1` [Compound 130], in series [1], the solubility entry is reported as “barely soluble in DMSO”. The “MIC (μg/mL) 48 h” value in the series on C. difficile ATCC 43255 [2] (C. difficile ATCC 43255, 48-h incubation, Hydrochloride) was greater than 128 µg/mL. In the series on C. difficile ATCC 43255 [2] (setting [13]), the MIC was greater than 128 µg/mL.

On to `CN[C@H](CC(C)C)C(=O)N[C@H]1C(=O)N[C@@H](CC(N)=O)C(=O)N[C@H]2C(=O)N[C@H]3C(=O)N[C@H](C(=O)N[C@H](C(=O)O)c4cc(O)cc(O)c4-c4cc3ccc4O)[C@H](O)c3ccc(c(Cl)c3)Oc3cc2cc(c3O[C@@H]2O[C@H](CO)[C@@H](O)[C@H](O)[C@H]2O[C@H]2C[C@](C)(N)[C@H](O)[C@H](C)O2)Oc2ccc(cc2Cl)[C@H]1O` [VAN, vancomycin], for which the MIC in series [3] is 0.25 µg/mL (≈ 0.173 µM); against A. baumanii ATCC17961, greater than 128 µg/mL; in [4], greater than 32 µg/mL; against K. pneumoniae ATCC700603, greater than 128 µg/mL; in [7], 0.25 µg/mL (≈ 0.173 µM); in the series with P. aeruginosa ATCC27853, greater than 128 µg/mL. Further, the MIC in the series on Veillonella sp. HM-49 is greater than 32 µg/mL; in [9], 16 µg/mL (≈ 11 µM); in the series on E. coli ATCC25922, greater than 128 µg/mL; in the series with E. aerogenes ATCC35029, greater than 128 µg/mL; in series [12] it was 1 µg/mL (≈ 0.69 µM). For the same molecule, the “effect on vegetative cells by SEM” value in series [5] is given as “damage the cell wall; also recorded: same effect”. Also, in series [6], the recurrence of infection is reported as 24%. In the series with C. difficile ATCC 43255 [8], the bactericidal or bacteriostatic entry is given as “bacteriostatic”. Further, the “increase in MIC on serial passage” value in the series with C. difficile ATCC 43255 [10] was 16 fold. Further, the “activity against Gram-negative organisms” value in the series with Gram-negative bacteria is on record as “no activity”. Moreover, the “activity against Gram-positive bacteria” value in [11] is “has activity”.

Consider `O=[N+]([O-])c1cnc(-c2nc(-c3ccc(OC4CCC4)cc3)no2)[nH]1` [Compound 131, 3-(4-Cyclobutoxyphenyl)-5-(5-nitro-1H-imidazol-2-yl)-1,2,4-oxadiazole], for which the IC50 in the series with HepG2 cells was 41.9 ± 4.5 µg/mL (≈ 128 µM); with THP-1 cells (THP-1, 24 h, read-out: LDH (IC50)), greater than 128 µg/mL; in the series with THP-1 cells (THP-1, read-out: toxicity IC50 (LDH assay)), greater than 50 µg/mL. The MIC in the series on C. difficile ATCC 43255 [2] (setting [13]) came to 0.5 µg/mL (≈ 1.53 µM); in the series with C. difficile ATCC 43255 [2] (ATCC43255, Table 1, strain ATCC 43255, read-out: MIC C. difficile), 0.25 µg/mL (≈ 0.764 µM).

Broadly, the IC50 is the concentration that inhibits the measured activity by half.
